In paper PMC10567728, “Targeted imaging of uPAR expression in vivo with cyclic AE105 variants” (Scientific Reports, 2023):
Like-named read-outs stand apart in the source and are kept apart here. Positions of bridges follow the written chain, without caps; N, C: chain ends. Non-standard residues stand in square brackets, D forms with d. Residues, ends and D or L forms follow the SMILES beside them. *: point of attachment. DOTA = O=C(O)CN1CCN(CC(=O)O)CCN(CC(=O)*)CCN(CC(=O)O)CC1; Cha = N[C@@H](CC1CCCCC1)C(=O)O

Tests used:
[1] = tested on: uPAR expression in U87MG tumor-bearing mice; format: in vivo; conditions: [64Cu]Cu-DOTA peptides
Protocol: Five weeks old female NMRI nude mice were purchased from Janvier (Le Genest-Saint-Isle, France) and housed in groups to acclimatize for a week upon arrival with light/dark period of 12/12 h and under controlled environmental conditions (temperature: 20–22 °C, relative humidity: 55%). Access to fresh water and standard pellet diet was provided ad libitum. Human glioblastoma cancer cell line U87MG (ATCC, Manassas, USA) was cultured in Dulbecco’s modified eagle medium (DMEM) supplemented with 10% fetal bovine serum and 1% penicillin–streptomycin at 37 °C and 5% CO2. Cells were harvested by trypsinization at a confluence of 70–90%. Mice were anesthetized (3–4% sevoflurane in 65% N2 and 35% O2) and ~ 4 × 10^6 U87MG cells resuspended in 100 μL PBS were injected subcutaneously into the right flank. Tumors were allowed to grow for 20 days. Tumor sizes were monitored using caliper measurements (Volume = 0.5 x (Length x Width^2)).
Tumor-bearing mice (tumor volumes (mean ± SD) of 221 ± 105 mm^3) were grouped (n = 6 per group) and anesthetized (3–4% sevoflurane in 65% N2 and 35% O2) prior to imaging. The four different [^64Cu]Cu–DOTA conjugated peptides were administered via tail vein injections of 5.4 ± 0.4 MBq corresponding to 118 ± 7 pmol (1b), 111 ± 4 pmol (8b), 92 ± 3 pmol (9b), and 75 ± 4 pmol (11b) (mean ± SD). Whole-body imaging consisting of a CT acquisition followed by a static PET acquisition was performed on an Inveon® small animal imaging system (Siemens Medical Systems, Malvern, PA, USA). PET/CT imaging was performed 1 h, 22 h, and 46 h post-injection (p.i.) of tracer with a 5 min, 10 min and 15 min PET scan, respectively. During scans the animals were placed on a heated bedding system to keep the body temperature stable. The PET acquisition was performed with an energy window of 350–650 keV and a time resolution of 6 ns, and data was corrected for dead time and decay. The CT scan consisted of 360 projections, with a tube voltage of 65 kV, a tube current of 500 μA and an exposure time of 400 ms per projection. Sinograms from PET scans were reconstructed using a 3-dimensional maximum a posteriori algorithm with correction for scatter and attenuation (CT-based). PET and CT images were co-registered and analyzed using Inveon Research Workplace software (Siemens Medical Solutions). The mean percentage of injected dose per grams (%ID/g) in different tissues was extracted by manually creating regions of interest (ROI) on fused PET/CT images.

uPAR [2] = target: T1, uPAR (Homo sapiens, UniProt Q03405); assay: SPR real-time binding kinetics, peptides in solution and immobilised uPAR
T1 construct: Recombinant human uPAR^1–283 was expressed; made in house; host or cells: Drosophila melanogaster S2 cells
T1 sequence (Q03405 23-305): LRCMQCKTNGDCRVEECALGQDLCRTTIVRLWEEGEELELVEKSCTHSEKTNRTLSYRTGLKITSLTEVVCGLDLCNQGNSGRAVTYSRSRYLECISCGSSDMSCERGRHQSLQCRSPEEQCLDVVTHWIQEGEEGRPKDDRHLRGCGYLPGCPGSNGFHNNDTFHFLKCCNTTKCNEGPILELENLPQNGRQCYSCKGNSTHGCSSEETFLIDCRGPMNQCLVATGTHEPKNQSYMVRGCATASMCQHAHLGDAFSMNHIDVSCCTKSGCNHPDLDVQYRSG
Protocol: The real-time binding kinetics of uPAR•peptide interactions were measured with SPR using a Biacore T200™(Cytiva); essentially as described in[56],[77]. In brief, uPAR was covalently immobilised on a CM5 sensor chip via amine coupling resulting in a surface density of 1157–1581 RU (~ 33–44 fmol/mm^2). The binding kinetics for the peptides to immobilised uPAR were measured using a single cycle protocol. In this setup, peptides were injected as five serial two-fold dilutions with a contact time of 200 s. After the last analyte injection, the dissociation time was set to 1000 s. The sensor chip was regenerated with two consecutive injections of 0.1 M acetic acid in 0.5 M NaCl. All experiments were conducted at 20 °C with a flow rate of 50 µL/min in 10 mM HEPES, 150 mM NaCl, 3 mM EDTA, and 0.05% (v/v) surfactant P-20 at pH 7.4. The kinetic rate constants (kon and koff) were determined by non-linear regression fitting of the curves to the simple bimolecular interaction model (BiacoreT200 Evaluation™ 3.0 software).

uPAR•uPA interaction = target: T2, uPAR•uPA interaction (Homo sapiens, UniProt Q03405); assay: SPR competition assay of the uPAR•uPA interaction; format: binding; conditions: competition of uPAR•uPA interaction, 2 nM uPAR, 20 °C, n = 3
T2 construct: Recombinant human uPAR^1–283 was expressed; made in house; host or cells: Drosophila melanogaster S2 cells
T2 sequence (Q03405 23-305): as above
Protocol: The IC50-values of antagonistic peptides on the uPAR•uPA interaction were determined with SPR using a Biacore T200™ or Biacore 3000™ instruments (Cytiva) essentially as described[4],[56],[77]. In brief, we immobilized high levels of pro-uPA^S356A (0.1 pmol pro-uPA/mm^2) on a CM5 sensor chip via amine coupling. The experiments were conducted by injecting 2 nM uPAR in presence of a threefold dilution series of a given antagonistic peptide for 300 s with a flow rate of 50 µL/min at 20 °C. The high immobilization levels result in binding conditions that are entirely controlled by mass transport limitations (MTL). Accordingly, the observed association rates (vobs) are directly proportional to the concentrations of binding-active uPAR in solution. To determine the IC50, we also measured a standard curve of uPAR binding (a twofold dilution series of 0.06 to 2 nM uPAR, linear due to MTL). The running buffer was 10 mM HEPES, 150 mM NaCl, 3 mM EDTA, and 0.05% (v/v) surfactant P-20 at pH 7.4, and the regeneration buffer was 0.1 M acetic acid in 0.5 M NaCl.

uPAR [3] = target: T1, uPAR; assay: Nano-DSF thermal stability of uPAR•peptide complexes
Protocol: The thermal stability of the uPAR•peptide complexes was analyzed with Nano-DSF using a Prometheus NT.48™ (Nanotemper). uPAR (15 µM) was mixed with twofold excess of peptide (30 µM) in PBS pH 7.4 and incubated for 15 min at RT to ensure complex formation. Samples containing either 15 µM uPAR or 30 µM of each peptide were included as controls. The samples were loaded into standard capillaries and in triplicates. To unfold the proteins, the samples were exposed to an increasing temperature gradient from 20 to 95 °C with a ramping rate of 1 °C/min. The excitation power was set to 50% (Ex.280 nm) and the fluorescence emission collected at 330 nm and 350 nm. The melting temperatures of the complexes were determined in the PR.ThermControl software (Nanotemper) from the first derivative of the fluorescence ratio (350 nm/330 nm).

U87MG tumor-bearing mice = assay: Ex vivo biodistribution by gamma-counting of resected organs; format: in vivo; conditions: [64Cu]Cu-DOTA peptides, ex vivo at 46 h; also tumor to muscle or heart ratios
Protocol: After the last PET/CT scan at 46 h p.i., mice were euthanized by cervical dislocation under anesthesia, and tumor, blood, heart, lung, liver, spleen, kidney, and muscle tissue were resected. All tissues were weighted, and the radioactivity measured in a gamma counter (Wizard2, Perkin Elmer). Data was corrected for decay, tissue weight and injected amount of radioactivity.

[4] = [63Cu]-DOTA labelled peptides, single-cycle SPR

`CC(C)C[C@@H]1NC(=O)[C@H](Cc2ccc(O)cc2)NC(=O)[C@H](NC(=O)[C@@H](CO)NC(=O)[C@H](Cc2ccccc2)NC(=O)[C@H](CC2CCCCC2)NC(=O)[C@H](CC(=O)O)NC(=O)CN2CCN(CC(=O)O)CCN(CC(=O)O)CCN(CC(=O)O)CC2)CSSC[C@@H](C(N)=O)NC(=O)[C@H](Cc2c[nH]c3ccccc23)NC1=O` [9b] ({DOTA}-D[Cha]F[dS][dC]YLWC-NH2; disulfide 5-9) was tested, and the “tumor uptake and tumor-to-organ ratios compared to linear control (8b)” value [1] was “significant albeit weak improvement”, the “difference in tumor max compared to (8b)” value ([1]; PET at 22 h) was “statistically significant” and the “tracer uptake compared to (8b)” value ([1]; all PET scans (1 h, 22 h, 46 h)) was “small but consistently higher uptake”. The Kd (uPAR [2]; [4]) was 22 nM, the koff (uPAR [2]; [4]) was 0.00659 ± 2e-05 s⁻¹ and the kon (uPAR [2]; [4]) was 2.99 ± 0.04 105 M-1 s-1. It also gave a koff (uPAR [2]; single cycle SPR, immobilised uPAR, 20 °C) of 0.002744 ± 4e-06 s⁻¹, a Kd (uPAR [2]; single cycle SPR, immobilised uPAR, 20 °C, 1:1 model) of 4.26 nM and a kon (uPAR [2]; single cycle SPR, immobilised uPAR, 20 °C, read-out: kon) of 644000 ± 2000 M⁻¹ s⁻¹. For the same molecule, the IC50 (uPAR•uPA interaction) was 7.3 ± 0.2 nM, the “Tm (apparent melting temperature of uPAR•peptide complex)” value (uPAR [3]; 15 µM uPAR, 30 µM peptide, PBS pH 7.4, n = 3) was at least 70 °C and the “increase in apparent Tm” value (uPAR [3]; DOTA-conjugated peptides, compared to (1b)) was “approximately 11 °C”. For the same molecule, the “difference in activity of resected tumors compared to (8b)” value (U87MG tumor-bearing mice) was “statistically significant”.
